Test results reported in paper PMC7180728, “Novel Anthraquinone Compounds Inhibit Colon Cancer Cell Proliferation via the Reactive Oxygen Species/JNK Pathway” (Molecules, 2020).
Values after ≈ are worked out from the molar mass of the structure shown.

Key:
[1] = tested on: HCT116 cells; test: Annexin V/PI apoptosis assay by flow cytometry; assay type: cell-based, human; details: 24 h, control 0.06%
Method: Natural anthraquinones, such as rubiadin, physcion, emodin and soranjidiol, have been reported to induce apoptosis in tumor cells. Therefore, after detecting the effect of 8a on tumor cell proliferation, we investigated correlation between the anticancer activity of compound 8a and apoptosis. The effects of compound 8a treatment on HCT116 cell apoptosis were detected by flow cytometry following Annexin V/PI staining.
HCT116 cells were added to a 6-well plate (5 × 10^6/well). After attachment, the cells were treated with 8a for 24 h. Then, the cells were collected and centrifuged (10,000 g × 5 min). Cells were washed once with 1 mL of PBS. Cells were suspended in 500 μL binding buffer (containing 5 μL Annexin V-FITC and 1 μL propidium iodide [PI]) and incubated for 30 min in the dark. Apoptosis cells were detected by flow cytometry (FACSCalibur, BD, The United States).

[2] = tested on: QBC939; test: MTT cell proliferation assay, QBC939; assay type: cell-based; details: Homo sapiens, QBC939 cholangiocarcinoma, 48 h
Method: (§1) The effects of the synthesized amide anthraquinone derivatives on the proliferative activity of eight human cancerous cell lines (EC9706, MCF-7, SGC-7901, HepG2, QBC939, HeLa, HCT116 and SW480) in addition to two normal human cell lines (colorectal FHC and liver HL7702) were evaluated using the standard MTT assay.
(§2) The human esophageal cancer cell line EC9706 was obtained from Cancer Hospital and Institute by Prof. Ming Rong Wang, Chinese Academy Medical of Sciences. The human colorectal carcinoma cell lines HCT116 and SW480, hepatoma cell line HepG2, cervical carcinoma cell line HeLa, breast cancer cell line MCF-7, gastric cancer cell line SGC-7901, cholangiocarcinoma cell line QBC939, normal fetal colon cell line FHC and liver cell line HL-7702 were obtained from the Cell Bank of the Shanghai Chinese Academy of Sciences. All cells were cultured in RPMI 1640 medium containing 100 U/mL penicillin and streptomycin and 10% fetal bovine serum and maintained at 37°C under a 5% CO2 atmosphere.
(§3) We analyzed the inhibitory effects of eight anthraquinone-amino acid derivatives on the proliferation of eight tumor cell lines and two normal cell lines in vitro using MTT assays. Cells were added to a 96-well plate with (5,000 cells per well in 100 µL RPMI-1640 medium). Cells were treated with different concentrations (10–100 μg/mL) of 8a–8h for 48 h and then incubated with 20 μL MTT (5 mg/mL) for another 4 h at 37°C. DMSO (150 μL) was then added to each well to dissolve the formazan crystals. The absorbance of each well was read at 490 nm on a microtiter plate ELISA reader. The mean values were obtained from a minimum of three parallel experiments. IC50 values were calculated.

[3] = tested on: MCF-7; test: MTT cell proliferation assay, MCF-7; assay type: cell-based; details: Homo sapiens, MCF7, MCF-7 breast cancer, 48 h
Method: as §1, §2, §3

[4] = tested on: JNK; test: Western blot, phosphorylated and total JNK; assay type: cell-based, human; details: HCT116, western blot
Source text: To further elucidate the mechanism by which 8a inhibits proliferation and induces apoptosis of HCT116 cells, the levels of phosphorylated and total JNK protein were examined by western blot analysis. […] Phosphorylation of JNK activated by the ROS pathway results in overexpression of tumor suppressor factors, thereby inducing apoptosis. In addition, JNK phosphorylation is associated with ROS production. To determine whether ROS production contributes to JNK1/2 phosphorylation and its related mechanisms, we blocked 8a-induced ROS production in HCT116 cells and then analyzed the changes in JNK 1/2 phosphorylation by western blotting. […] Furthermore, pre-treatment of cells with NAC reduced the levels of p-JNK induced by 8a.
The expression of signaling pathway-related proteins was detected by western blot analysis. Cell (1 × 10^6) were plated in 90-mm dishes and treated with 8a for 24 h. The cells were treated with NAC in the same way as in step 4.7. Resuspend the cells in Buffer A (1 mM EDTA, 1 mM PMSF, 0.28 μg/mL apotinin, 50 μg/mL leupeptin, 7 μg/mL pepstain A) and transferred to a 1 mL glass homogenizer and pull up and down 30 times in an ice bath. Cells were collected and centrifuged (1000 g × 10 min, 4 °C). The obtained supernatant and precipitate were the crude cytoplasm and mitochondria, respectively. The cytosolic fraction was transferred to an ultra-ion tube and centrifuged (100,000g × 1 hr, 4 °C), and the resulting supernatant was the purified cytosolic fraction. The mitochondrial pellet was resuspended in Buffer B (1mM EGTA, 1mM PMSF, 0.28 μg/mL apotinin, 50 μg/mL leupeptin, 7 μg/mL pepstain A), centrifuged (10,000g × 10 min, 4 °C), and repeated 3 times. The mitochondria pellet was lysed in cell lysate buffer (1% NP-40, 2 μg/mL aprotinin, 2 μg/mL leupeptin, 1mM EDTA, 1mM Na vanadate). Protein concentrations in the supernatant were determined by using a Minbio BCA protein assay kit. Protein were separated by SDS-PAGE and transferred to a PVDF membrane. The membrane was blocked, and incubated with primary detection antibodies overnight at 4 °C. […]

[5] = tested on: mitochondrial membrane potential of HCT116 cells; test: Mitochondrial membrane potential, JC-1 flow cytometry; assay type: cell-based, human; details: 24 h
Method: Decreased mitochondrial membrane potential is a hallmark of early cell apoptosis, and a decrease in mitochondrial membrane potential leads to the release of certain mitochondrial proteins, such as cytochrome c, which mediate apoptosis. Therefore, we examined changes in mitochondrial membrane potential by flow cytometry. HCT116 cells were treated with 8a (10 or 20 μg/mL) for 24 h and then stained with 2 μg/mL JC-1 for 30 min prior to flow cytometric analysis. Green /orange fluorescence ratio of JC-1, compare with control, is 200% and 494.4%, respectively (Figure 8E,F). […] During apoptosis, mitochondrial cytochrome C is released into the cytoplasm and triggers the activation cascade of caspase. HCT116 cells were collected after 8a treatment, cytoplasmic protein and mitochondrial protein were extracted. The levels of cytochrome c in the cytoplasm and mitochondria were detected by Western blotting. After treatment of HCT116 cells with 8a (10 or 20 μg/mL) for 24 h, cytoplasmic levels of cytochrome c increased, while the levels in the mitochondria decreased.
The 1×10^4 cells were treated with different concentrations of 8a for 24 h. Cells were then incubated with 500 μL JC-1 ([…]) for 30 min at 37 °C in the dark. The level of mitochondrial membrane potential depolarization was measured by flow cytometry. Data were analyzed using the Cell Quest program (BD, New York, The United States).

## CC(C)CC(NC(=O)c1ccc2c(c1[N+](=O)[O-])C(=O)c1ccccc1C2=O)C(=O)O (centres unmarked) [Compound 8a, N-[(9,10-dihydro-1-nitro-9,10-dioxo-2-anthracenyl)carbonyl-leucine]]
[1]; 10 μg/mL
  rate of apoptosis: 11.24%
[1]; 20 μg/mL
  rate of apoptosis: 18.97%
[1]; 40 μg/mL
  rate of apoptosis: 26.94%
[2]
  IC50: 43.13 ± 0.05 µg/mL (≈ 105 µM)
[3]
  IC50: 33.34 ± 0.28 µg/mL (≈ 81.2 µM)
[4]; 20 μg/mL, time course
  levels of phosphorylated JNK: gradually increased with time
  total JNK levels: not altered
[4]; 8a 20 μg/mL with NAC pre-treatment
  levels of p-JNK induced by 8a after NAC pre-treatment: reduced
[5]; 10 μg/mL
  Green/orange fluorescence ratio of JC-1, compared with control: 200%
[5]; 20 μg/mL
  Green/orange fluorescence ratio of JC-1, compared with control: 494.4%
[5]; 10 or 20 μg/mL
  mitochondrial membrane potential (in words): decreased the mitochondrial membrane potential in a dose-dependent manner
